Peptide text beside a SMILES is read from it.
What was measured:
Format in all cases: cell-based
huGIPR = biological target: T1, huGIPR (Homo sapiens, UniProt P48546); test: CRE-luc reporter assay, huGIPR; conditions: Table 3, HEK293T, 6 h, mean ± S.E. of at least three independent experiments, NR = no response
T1 construct: expressed in transfected cells; host or cells: HEK293T
T1 sequence (P48546 22-466): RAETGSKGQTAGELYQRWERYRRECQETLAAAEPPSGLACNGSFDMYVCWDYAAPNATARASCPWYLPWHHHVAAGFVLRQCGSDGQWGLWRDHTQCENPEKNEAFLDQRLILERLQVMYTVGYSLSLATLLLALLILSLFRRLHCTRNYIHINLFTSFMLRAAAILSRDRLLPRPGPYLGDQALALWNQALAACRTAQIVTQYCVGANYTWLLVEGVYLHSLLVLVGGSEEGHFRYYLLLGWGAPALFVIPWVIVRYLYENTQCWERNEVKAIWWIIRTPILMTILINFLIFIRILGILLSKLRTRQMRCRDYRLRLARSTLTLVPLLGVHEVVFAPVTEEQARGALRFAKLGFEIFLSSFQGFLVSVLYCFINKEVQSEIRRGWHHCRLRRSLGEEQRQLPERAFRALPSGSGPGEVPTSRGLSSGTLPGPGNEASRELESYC

huGLP2R = biological target: T2, huGLP2R (Homo sapiens, UniProt O95838); test: CRE-luc reporter assay, huGLP2R; conditions: Table 3, HEK293T, 6 h, mean ± S.E. of at least three independent experiments, NR = no response
T2 construct: host or cells: HEK293T
T2 sequence (O95838 1-553): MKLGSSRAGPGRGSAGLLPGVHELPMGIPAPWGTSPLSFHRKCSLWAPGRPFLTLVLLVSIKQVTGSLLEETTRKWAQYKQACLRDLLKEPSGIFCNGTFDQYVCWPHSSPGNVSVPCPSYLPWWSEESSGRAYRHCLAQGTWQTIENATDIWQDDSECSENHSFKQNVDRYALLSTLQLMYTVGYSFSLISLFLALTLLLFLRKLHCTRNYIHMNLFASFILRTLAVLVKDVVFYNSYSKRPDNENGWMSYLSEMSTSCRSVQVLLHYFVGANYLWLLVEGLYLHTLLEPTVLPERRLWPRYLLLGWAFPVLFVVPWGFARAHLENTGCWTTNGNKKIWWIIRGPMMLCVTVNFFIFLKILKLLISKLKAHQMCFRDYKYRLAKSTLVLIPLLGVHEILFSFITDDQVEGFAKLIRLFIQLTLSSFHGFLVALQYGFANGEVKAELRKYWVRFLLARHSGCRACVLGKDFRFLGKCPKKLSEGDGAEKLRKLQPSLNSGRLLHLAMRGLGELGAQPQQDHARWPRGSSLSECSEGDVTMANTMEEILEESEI

huGLP1R = huGLP1R (Homo sapiens, UniProt P43220); test: CRE-luc reporter assay, huGLP1R; conditions: Table 3, HEK293T, 6 h, mean ± S.E. of at least three independent experiments
huGCGR = biological target: T3, huGCGR (Homo sapiens, UniProt P47871); test: CRE-luc reporter assay, huGCGR; conditions: Table 3, HEK293T, 6 h, mean ± S.E. of at least three independent experiments, NR = no response
T3 construct: host or cells: HEK293T
T3 sequence (P47871 26-477): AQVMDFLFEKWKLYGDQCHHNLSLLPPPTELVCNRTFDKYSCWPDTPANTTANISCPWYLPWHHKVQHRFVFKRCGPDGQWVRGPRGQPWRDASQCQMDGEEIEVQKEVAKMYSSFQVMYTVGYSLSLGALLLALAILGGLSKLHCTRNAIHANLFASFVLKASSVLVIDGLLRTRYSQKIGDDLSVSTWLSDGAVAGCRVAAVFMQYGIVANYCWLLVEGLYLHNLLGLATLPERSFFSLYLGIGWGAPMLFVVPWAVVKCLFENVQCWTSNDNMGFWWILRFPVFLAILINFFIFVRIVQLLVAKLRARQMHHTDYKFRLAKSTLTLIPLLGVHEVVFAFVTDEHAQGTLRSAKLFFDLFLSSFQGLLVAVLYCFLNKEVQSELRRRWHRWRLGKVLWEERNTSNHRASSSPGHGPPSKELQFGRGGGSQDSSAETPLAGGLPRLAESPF

Chain of huGLP1R (P43220 24-463): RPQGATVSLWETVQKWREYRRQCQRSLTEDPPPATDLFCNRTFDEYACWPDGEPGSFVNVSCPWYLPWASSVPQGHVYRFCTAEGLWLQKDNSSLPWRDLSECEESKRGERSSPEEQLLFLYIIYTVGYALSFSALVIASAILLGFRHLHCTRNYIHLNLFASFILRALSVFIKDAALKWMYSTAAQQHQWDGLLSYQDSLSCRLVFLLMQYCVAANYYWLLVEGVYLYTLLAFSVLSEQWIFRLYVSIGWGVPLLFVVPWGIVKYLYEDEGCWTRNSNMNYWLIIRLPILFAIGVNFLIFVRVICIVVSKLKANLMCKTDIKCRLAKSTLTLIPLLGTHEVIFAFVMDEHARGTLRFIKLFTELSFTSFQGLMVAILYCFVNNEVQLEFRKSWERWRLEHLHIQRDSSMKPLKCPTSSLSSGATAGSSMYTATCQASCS

| EC50 (huGIPR) | EC50 (huGLP2R) | EC50 (huGLP1R) | EC50 (huGCGR) | SMILES |
| --- | --- | --- | --- | --- |
| > 10000 nM | > 10000 nM | 156 ± 32.8 nM | 175 ± 41.8 nM | CC[C@H](C)[C@H](NC(=O)[C@H](C)NC(=O)[C@H](C)NC(=O)[C@H](CC(C)C)NC(=O)[C@H](Cc1c[nH]c2ccccc12)NC(=O)[C@H](CCC(=O)O)NC(=O)[C@@H](NC(=O)[C@H](Cc1ccccc1)NC(=O)[C@H](CC(N)=O)NC(=O)[C@H](CCCCN)NC(=O)[C@H](C)NC(=O)[C@H](CCCCN)NC(=O)[C@H](CCSC)NC(=O)[C@H](CCCCN)NC(=O)[C@H](CC(=O)O)NC(=O)[C@H](CC(C)C)NC(=O)[C@H](Cc1ccc(O)cc1)NC(=O)[C@H](CC(N)=O)NC(=O)[C@@H](NC(=O)[C@H](CC(C)C)NC(=O)[C@H](CC(=O)O)NC(=O)[C@H](CO)NC(=O)[C@@H](NC(=O)[C@H](Cc1ccccc1)NC(=O)[C@H](CCSC)NC(=O)CNC(=O)[C@H](CC(=O)O)NC(=O)[C@@H](NC(=O)[C@@H](N)Cc1c[nH]cn1)[C@@H](C)O)[C@@H](C)O)[C@@H](C)O)C(C)C)C(=O)N[C@@H](CCCCN)C(=O)N[C@@H](CCC(N)=O)C(=O)N[C@@H](CCC(N)=O)C(=O)N[C@@H](CCC(=O)O)C(=O)O [mdGCRP] (H-HTDGMFTSDLTNYLDKMKAKNFVEWLAAIKQQE-OH) |
| > 10000 nM | > 10000 nM | > 1000 nM | 182 ± 39.5 nM | CSCC[C@H](NC(=O)[C@H](CC(C)C)NC(=O)[C@H](Cc1c[nH]c2ccccc12)NC(=O)[C@H](CCC(N)=O)NC(=O)[C@@H](NC(=O)[C@H](Cc1ccccc1)NC(=O)[C@H](CC(=O)O)NC(=O)[C@H](CCCCN)NC(=O)[C@H](C)NC(=O)[C@H](CCCCN)NC(=O)[C@H](CCSC)NC(=O)[C@H](CCCCN)NC(=O)[C@H](CC(=O)O)NC(=O)[C@H](CC(C)C)NC(=O)[C@H](Cc1ccc(O)cc1)NC(=O)[C@H](CCCNC(=N)N)NC(=O)[C@@H](NC(=O)[C@H](CC(C)C)NC(=O)[C@H](CC(=O)O)NC(=O)[C@H](CO)NC(=O)[C@H](CO)NC(=O)[C@H](Cc1ccccc1)NC(=O)[C@@H](NC(=O)CNC(=O)[C@H](CCC(=O)O)NC(=O)[C@H](CO)NC(=O)[C@@H](N)Cc1c[nH]cn1)[C@@H](C)O)[C@@H](C)O)C(C)C)C(=O)N[C@@H](CC(N)=O)C(=O)O [xeGCRP] (H-HSEGTFSSDLTRYLDKMKAKDFVQWLMN-OH) |
| > 10000 nM | 592 ± 127 nM | 48.9 ± 9.15 nM | 42.7 ± 14.5 nM | CC[C@H](C)[C@H](NC(=O)[C@H](CC(C)C)NC(=O)[C@H](Cc1c[nH]c2ccccc12)NC(=O)[C@H](Cc1c[nH]cn1)NC(=O)[C@@H](NC(=O)[C@H](Cc1ccccc1)NC(=O)[C@H](CC(=O)O)NC(=O)[C@H](CCCCN)NC(=O)[C@H](C)NC(=O)[C@H](CCCCN)NC(=O)[C@H](CCSC)NC(=O)[C@H](CCCCN)NC(=O)[C@H](CC(=O)O)NC(=O)[C@H](CC(C)C)NC(=O)[C@H](Cc1ccc(O)cc1)NC(=O)[C@H](CCCNC(=N)N)NC(=O)[C@@H](NC(=O)[C@H](Cc1ccccc1)NC(=O)[C@H](CC(=O)O)NC(=O)[C@H](CO)NC(=O)[C@@H](NC(=O)[C@H](Cc1ccccc1)NC(=O)[C@@H](NC(=O)CNC(=O)[C@H](CCC(=O)O)NC(=O)[C@H](CO)NC(=O)[C@@H](N)Cc1c[nH]cn1)[C@@H](C)O)[C@@H](C)O)[C@@H](C)O)C(C)C)C(=O)N[C@@H](CC(N)=O)C(=O)N[C@H](C(=O)O)[C@@H](C)O [chGCRP] (H-HSEGTFTSDFTRYLDKMKAKDFVHWLINT-OH) |

— PMC3679108, “A Novel Glucagon-Related Peptide (GCRP) and Its Receptor GCRPR Account for Coevolution of Their Family Members in Vertebrates” (PLoS ONE, 2013)
